This is an account of results in patent publication US11324795B2, “Composition comprising Hordeum vulgare extract for preventing or treating short stature” (UNIVERSITY-INDUSTRY COOPERATION GROUP OF KYUNG HEE …, priority 2013, dated 2022).

The test has as its system Sprague-Dawley female rats. Nature of the test: Evaluation of longitudinal bone growth effect, tetracycline staining method. Format: in vivo, rat. The procedure:
As experimental animals, four-week-old Sprague-Dawley female rats (Samtako, Korea) weighing about 100 g were purchased and cared for so as to be acclimatized to the experimental environment while supplying sufficient feed and water. After about 1 week for the acclimatization period, animal testing was performed.
Two days after administration, 20 mg/kg of tetracycline hydrochloride (Sigma T7660) was injected intraperitoneally to all test groups. Two days thereafter, the rats were sacrificed via cervical dislocation, after which the left and right tibiae were removed, fixed in a fixing solution at 4° C. for 3 days, allowed to stand in 50 mM EDTA for 1 day, demineralized, and immersed in 30% sucrose overnight to protect freezing. The bone tissue thus dehydrated was frozen, and cut into 40 μm sections using a sliding microtome (HM440E, Zeiss, Germany), thus collecting sagittal sections of the proximal part of the tibia. To measure the bone growth, each sagittal section of the proximal part of the tibia, 40 μm thick, was placed on a slide glass, dried, and then observed under UV light at a wavelength of 400 nm using a fluorescence microscope (FIG. 1). Using image analysis software ImageJ (NIH, USA), the length between the fluorescence bands formed by the deposition of tetracycline in the growth plate and the bone tissue was measured, and Student's t-test and ANOVA test for comparison with a control group were performed in order to determine the growth effect.
The Hordeum vulgare extract prepared in Example 1 was administered after having been dissolved in a concentration of 30 mg/kg in type II distilled water in a volume of 1.0 ml per 100 g of rat weight, and as a control group, the same volume of type II distilled water was administered. The Hordeum vulgare extract was orally administered two times a day for a total of four days, starting from 2 days before the administration of tetracycline until the test termination day. […]

As for “Positive control group: recombinant human growth hormone (rhGH; LG Lifescience, Eutropin®)”, the “Longitudinal bone growth rate (%)” value (Table 1, extract 30 mg/kg (p.o.), positive control 20 μg/kg (s.c.)) is 6.6%. In addition, under “proximal tibia, tetracycline band length, 4 days dosing, extract 30 mg/kg p.o. two times a day, rhGH 20 μg/kg s.c. once a day”, the “longitudinal bone growth rate” value worked out at 360.1±35.8 μm/day. The “longitudinal bone growth rate, % higher than normal control group” value (vs 337.8±30.0 μm/day in normal control group, extract 30 mg/kg p.o. (p<0.001), rhGH 20 μg/kg s.c. (not significant)) amounted to 6.6%.
